Ka data for four compounds are collected here from ChEMBL document CHEMBL3132808, “Exceptionally strong intermolecular association in hydrophobic DNA minor groove binders and their potential therapeutic consequences” (Medchemcomm, 2013).

Calls of active or inactive are those of the source. The calls are words filed in the database; no cut-off is given here.

In this assay the test system is Nucleic Acid. Kind of assay: Binding affinity to […] DNA oligomer d(CGATATATCG)2 (unknown origin) minor groove assessed as association constant by NMR. It counts as nucleic-acid assay.
Take `CC(C)c1sc(NC(=O)c2cc(NC(=O)c3cc(NC=O)cn3C)cn2C)nc1C(=O)NCCCN(C)C`: the Ka entry is “inactive”.
The value for `COc1cccc(/C=C/c2ccc(C(=O)Nc3cc(C(=O)NCCN4CCOCC4)n(C)c3)cc2)c1` was “inactive”.
Regarding `CC(=O)Nc1cn(C)c(C(=O)Nc2cc(C(=O)Nc3nc(C(=O)NCCCN(C)C)c(C(C)C)s3)n(C)c2)n1`, the Ka entry was “inactive”.
The value for `CC(C)c1sc(NC(=O)c2cc(NC(=O)c3cc(NC(=O)c4cccnc4)cn3C)cn2C)nc1C(=O)NCCCN(C)C` was 6.1 ×10⁴ /M.
